From PubChem BioAssay AID1996 come the findings set out here.

The term kinetic solubility denotes solubility judged after dilution from a stock solution rather than from solid.

Converted amounts (≈) assume the structure as drawn. A value given as a limit tells only on which side of the number the result lay.

The conditions of the data set: buffer; pH 7.4; 200.0 µM.
Molecule `O=[N+]([O-])c1ccc(-c2nc(-c3ccncc3)no2)cc1` yielded a kinetic solubility of 1.3 µg/mL (≈ 4.85 µM).

Consider `CC(NC(=O)c1ccccc1Cl)C(=O)OCc1cn2cc(Cl)ccc2n1` (configuration not stated), for which the kinetic solubility is over 58.8 µg/mL.

Regarding `CCOC(=O)c1cc(C)n(-c2ccc(Cl)cc2)c1C`, the kinetic solubility came out at 1.2 µg/mL (≈ 4.32 µM).

On to `O=S(=O)(c1ccc(Cl)nc1)N1CCc2ccccc21`, for which the solubility (kinetic) is 24.9 µg/mL (≈ 84.5 µM).

With `O=C(CCN1C(=O)c2ccncc2C1=O)Nc1cc(F)ccc1F`, the kinetic solubility amounted to 41.7 µg/mL (≈ 126 µM).

The molecule `Cc1nc2ccccc2c(=O)n1NC(=O)c1cccc(Cl)c1` gave a solubility (kinetic) of over 47.1 µg/mL.

Turning to `COCCNCC(=O)N1c2ccccc2Sc2ccccc21`, the kinetic solubility turned out to be 38.1 µg/mL (≈ 121 µM).

`CC(=O)NCCNS(=O)(=O)c1ccc(C)c([N+](=O)[O-])c1` had a kinetic solubility of over 45.2 µg/mL.

Molecule `Cc1ccc(C)c(NC(=O)C2CC(=O)N(C3CCCCC3)C2)c1` (configuration not stated) came in with a kinetic solubility of 41.5 µg/mL (≈ 132 µM).

`CC(=O)NCCNC(=O)c1ccc(-n2c(C)ccc2C)cc1`: the kinetic solubility is 35.3 µg/mL (≈ 118 µM).

`O=C(Nc1cc(C(F)(F)F)ccc1N1CCOCC1)c1cnccn1` returned a kinetic solubility of 1.1 µg/mL (≈ 3.12 µM).

The molecule `CCN(CC)c1c([N+](=O)[O-])c(=O)n(C)c2ccccc12` gave a solubility (kinetic) of 24.9 µg/mL (≈ 90.4 µM).

`CCCc1cc(C(=O)Nc2ccc(C#N)cc2)no1` had a kinetic solubility of 2.4 µg/mL (≈ 9.4 µM).

Molecule `O=C1/C(=C/c2cccs2)SC(=S)N1c1cccc(O)c1` had a solubility (kinetic) of 1 µg/mL (≈ 3.13 µM).

Molecule `Cc1ccc2nc(N3CCOCC3)c(C=O)cc2c1` gave a kinetic solubility of 25.8 µg/mL (≈ 101 µM).

Molecule `CC(=O)N1CCN(C(=O)c2ccc3c(c2)OCO3)CC1` returned a kinetic solubility of over 41.4 µg/mL.

Regarding `O=c1c2ccccc2n(CC(O)CN2CCCCC2)c2ccccc12` (configuration not stated), the kinetic solubility is over 50.5 µg/mL.

For `COc1ccc(C(=O)Nc2cccc(S(=O)(=O)N(C)C)c2)cc1S(=O)(=O)N1CCOCC1`, the kinetic solubility was determined as 12.3 µg/mL (≈ 25.4 µM).

Molecule `Cc1cc(C(=O)OCC(=O)Nc2cccc(S(N)(=O)=O)c2)c(C)o1` returned a kinetic solubility of over 52.9 µg/mL.

On to `CC(c1ccccc1)C1CC(=O)N(c2ccc([N+](=O)[O-])cc2)C1=O` (configuration not stated), for which the kinetic solubility came to 32.5 µg/mL (≈ 100 µM).

As for `COc1ccc2c(c1)c(CC[NH3+])c(C)n2Cc1ccccc1.[Cl-]`, the solubility (kinetic) was found to be 44.5 µg/mL.

For the molecule `COC(=O)Nc1ccc2c(c1)Nc1ccccc1CC2`, the kinetic solubility was found to be 0.5 µg/mL (≈ 1.86 µM).

Turning to `O=C(CCCN1C(=O)/C(=C\c2ccccc2)SC1=S)N1CCOCC1`, the kinetic solubility amounted to 9.8 µg/mL (≈ 26 µM).

In the case of `COc1ccc(NS(=O)(=O)c2cc(NC(=O)c3cncc(Br)c3)ccc2OC)cc1`, the kinetic solubility is 21.9 µg/mL (≈ 44.5 µM).

`CC(CCN1CCN(c2ccc(F)cc2)CC1)c1ccccc1` (configuration not stated) displayed a solubility (kinetic) of 19.6 µg/mL (≈ 62.7 µM).

`CC(C)C(NC(=O)c1ccccc1)C(=O)NCCc1ccccc1` (configuration not stated) yielded a kinetic solubility of 9.4 µg/mL (≈ 29 µM).

Molecule `COc1ccccc1C(=O)OCC(=O)NC1CCCC1` returned a kinetic solubility of over 41.6 µg/mL.

`Cc1ccc(S(=O)(=O)N2CCOCC2)cc1NC(=O)CNC(C)c1ccccc1.O=C(O)C(=O)O` (configuration not stated) had a solubility (kinetic) of 74.1 µg/mL.

Molecule `O=C(COC(=O)c1cnccn1)Nc1cccc2ccccc12` returned a solubility (kinetic) of over 46.1 µg/mL.

As to `CCc1nonc1NC(=O)COc1cc(C)c(Cl)c(C)c1`, the solubility (kinetic) was determined as 0.3 µg/mL (≈ 0.969 µM).

In the case of `Cc1c(C(=O)Oc2ccc(Cl)cc2)n(C)oc1=O`, the kinetic solubility stood at 37 µg/mL (≈ 138 µM).

The molecule `CC(C)(Oc1ccc(Cl)cc1)C(=O)N1CCN(C(=O)c2ccco2)CC1` displayed a solubility (kinetic) of over 56.5 µg/mL.

For the molecule `O=C(O)c1cc(S(=O)(=O)NCCCN2CCCC2=O)ccc1Cl`, the kinetic solubility was over 54.1 µg/mL.

Take `NC(=O)COC(=O)c1ccccc1OCc1ccccc1`: the kinetic solubility was over 42.8 µg/mL.

The molecule `Cc1nc2ccccc2n1CCOc1ccccc1` returned a solubility (kinetic) of over 37.8 µg/mL.

For the molecule `CCc1ccccc1NC(=O)CN(C)C(=O)COC(=O)c1ccco1`, the kinetic solubility is over 51.7 µg/mL.

`COC(=O)CN=Cc1c(O)n(-c2ccc(Cl)cn2)c(=O)c2ccccc12`: the kinetic solubility was over 55.8 µg/mL.

`CCc1ccc(NS(=O)(=O)c2cccc3nsnc23)cc1` returned a kinetic solubility of 40.5 µg/mL (≈ 127 µM).

Molecule `COc1ccc(CSc2nc3ccccc3c(=O)[nH]2)cc1F` displayed a solubility (kinetic) of 1.3 µg/mL (≈ 4.11 µM).

In turn, `O=C(Nc1ccc2ccccc2c1)c1ccccc1O` returned a solubility (kinetic) of 0.7 µg/mL (≈ 2.66 µM).

As for `O=C(Cc1ccc(F)cc1)Nc1ccccc1N1CCCC1`, the solubility (kinetic) was 34.1 µg/mL (≈ 114 µM).

Regarding `Cc1nc(=O)c(-c2ccccc2)c(C)n1-c1ccccc1`, the kinetic solubility was over 41.5 µg/mL.

In turn, `Cc1c(C(=O)c2ccccc2)c(=O)n(C)c(=O)n1C` gave a kinetic solubility of over 38.7 µg/mL.

The molecule `O=C(Nc1cccc(F)c1)Nc1ccc2c(c1)C(=O)OC2` gave a solubility (kinetic) of under 0.3 µg/mL.

For the molecule `O=S(=O)(NC1=NCCCCC1)c1ccc(F)cc1F`, the solubility (kinetic) is over 43.2 µg/mL.

On to `COc1ccc(NC(=O)CNC(=O)C2CCCCC2)cc1OC`, for which the solubility (kinetic) was over 48.1 µg/mL.

`O=C(CSc1ccccn1)N1CCc2ccccc21` registered a solubility (kinetic) of 3.7 µg/mL (≈ 13.7 µM).

For the molecule `O=c1oc2ccc(Cl)cc2nc1/C=C(\O)c1cccs1`, the solubility (kinetic) came to 20.9 µg/mL (≈ 68.4 µM).

In the case of `Cc1ccc(S(=O)(=O)NCCC2=CCCCC2)cc1`, the solubility (kinetic) worked out at 23 µg/mL (≈ 82.3 µM).

For the molecule `CC(C)c1ccc(CNC(=O)C(=O)NCCCn2ccnc2)cc1`, the solubility (kinetic) amounted to 45.4 µg/mL (≈ 138 µM).

As to `Cc1ccccc1-c1nnc(SCC(=O)NC2CCS(=O)(=O)C2)n1C` (configuration not stated), the solubility (kinetic) was over 57.1 µg/mL.

As to `O=C(CNS(=O)(=O)c1ccc(Cl)cc1)N1CCN(c2ccc(F)cc2)CC1`, the solubility (kinetic) stood at 8.3 µg/mL (≈ 20.2 µM).
